One assay relates to CD4+ effector T cells. Format: cell-based, human.
For a further assay, the system named is human DR molecules. To be noted: cited from earlier work.
Assay [1] relates to T cells of PBMCs from lupus patients. Particulars: randomly selected lupus patients; cited from earlier work.

The text below walks through data of US20210308182A1, “REGULATORY T CELL EPITOPES” (EpiVax Inc., priority 2020, published 2021).

Consider “KTLYLQMNSLRAEDTAKH (listed as Homo sapiens) [SEQ ID NO: 7]”, for which, in the assay with CD4+ effector T cells, the “suppression of activated effector CD4+ T cells (CD4+/CD25-high/FoxP3-intermediate) reacting to Tetanus Toxoid” value is listed as “strongly suppressed” and the “suppression of proliferation of CD4+ effector T cells (CFSE)” value is listed as “Suppressed”.

With “RIHMVYSKRSGKPRGYAFIEY (listed as Homo sapiens) [peptide 131-151]”, the “binding to soluble HLA class II molecules” value with human DR molecules is reported as “binds to a large panel of human DR molecules”. In assay [1], the “lupus patients whose PBMCs contain T cells that proliferate in response to the peptide” value is given as 40%.
